Patent US20260234161A1, “RIFABUTIN ANALOGS FOR THE TREATMENT OF BACTERIAL DISEASES” (BIOVERSYS AG, priority 2023, published 2026)
≈ marks a conversion by molar mass, not a printed value.

Tests used:
Type in all cases: cell-based
[1] = tested on: S. aureus (UAMS-1625 strain); assay: MIC by broth microdilution, S. aureus; conditions: Staphylococcus aureus, 20 h, read-out: MIC S. aureus
Description: (§1) MIC values were determined by broth microdilution method according to the CLSI guidelines with the following exceptions: MIC against A. baumannii was performed in RPMI medium supplemented with 10% FCS and MIC against M. abscessus was performed in Middlebrook 7H9 broth supplemented with Middlebrook ADC growth supplement (10%; see column “M. abscessus 7H9”). MIC forM abscessus was determined a second time in standard cation adjusted Mueller Hinton broth without growth supplement (see colum “M. abscessus MH”). All other MIC were performed in standard cation adjusted Mueller Hinton broth, supplemented with Middlebrook ADC growth supplement (5%) for the slow growing mycobacteria (M. xenopi, M. kansasii and M. avium).
(§2) The following procedure applies to all species tested, except forM xenopi. From a fresh culture plate (from overnight to several days depending on the bacteria), cells were resuspended in 0.9% (w/v) saline solution and bacterial inoculum was prepared in the respective testing medium with 5×10^5 CFU/mL. For M. xenopi, the inoculum was prepared from a fresh liquid culture (7H9+ADC). The appropriate volumes of a 10 mg/mL compound solution were directly dispensed in the 96-well assay plate using a digital dispenser to create two-fold dilution series from 32 to 0.002 μg/mL final concentration for A. baumannii and S. aureus; from 16 to 0.016 μg/mL for M. abscessus and M. avium; and from 1 to 6×10^−5 μg/mL for M. kansasii and M. xenopi. 100 μL of bacterial suspension was finally added to the compounds. Plates were covered and incubated without shaking at 35° C. for 20 hours for A. baumanii and S. aureus; at 30° C. for 4 days for M. abscessus; and at 37° C. for 7 days (at least) for M. kansasii (covered with aluminum foil to avoid light exposure), M. avium and M. xenopi. Every experiment contained an antibiotic as quality control. MIC was determined visually as the lowest concentration of a compound that prevents visible growth of the bacteria.
(§3) The in vitro activity of compounds described herein was determined against S. aureus (UAMS-1625 strain), A. baumannii (HUMC1 strain), M. abscessus (ATCC 19977), M. kansasii (ATCC 12478), M. avium (ATCC 25291), and M. xenopi (ATCC 19250).

[2] = tested on: A. baumannii (HUMC1 strain); assay: MIC by broth microdilution, A. baumannii (RPMI + 10% FCS); conditions: Acinetobacter baumannii; HUMC1 strain; RPMI medium + 10% FCS; 35° C., 20 hours; read-out: MIC A. baumannii
Description: as §1, §2, §3

[3] = tested on: M. abscessus (ATCC 19977); assay: MIC by broth microdilution, M. abscessus in cation adjusted Mueller Hinton broth; conditions: Mycobacteroides abscessus, ATCC19977, 96 h; ATCC 19977; cation adjusted Mueller Hinton broth without growth supplement; 30° C., 4 days; read-out: MIC M. abscessus MH
Description: as §1, §2, §3

## CO[C@H]1/C=C/O[C@@]2(C)Oc3c(C)c(O)c4c(c3C2=O)C2=NC3(CCN(CC(C)C)CC3)NC2=C(NC(=O)/C(C)=C\C=C\[C@H](C)[C@H](O)[C@@H](C)[C@@H](O)[C@@H](C)[C@H](OC(=O)N2CCCC3(CCN(C)CC3)C2)[C@@H]1C)C4=O [Compound 20]
[1]
  MIC: 0.06 µg/mL (≈ 0.06 µM)
[2]
  MIC: ≤ 0.016 µg/mL
[3]
  MIC: 1 µg/mL (≈ 1 µM)

## CO[C@H]1/C=C/O[C@@]2(C)Oc3c(C)c(O)c4c(c3C2=O)C2=NC3(CCN(CC(C)C)CC3)NC2=C(NC(=O)/C(C)=C\C=C\[C@H](C)[C@H](O)[C@@H](C)[C@@H](O)[C@@H](C)[C@H](OC(=O)N2CCOC3(CCN(C)CC3)C2)[C@@H]1C)C4=O [Compound 24]
[1]
  MIC: 0.06 µg/mL (≈ 0.0599 µM)
[2]
  MIC: ≤ 0.016 µg/mL
[3]
  MIC: 2 µg/mL (≈ 2 µM)

## CO[C@H]1/C=C/O[C@@]2(C)Oc3c(C)c(O)c4c(c3C2=O)C2=NC3(CCN(CC(C)C)CC3)NC2=C(NC(=O)/C(C)=C\C=C\[C@H](C)[C@H](O)[C@@H](C)[C@@H](O)[C@@H](C)[C@H](OC(=O)N2CCN3CCCC3C2)[C@@H]1C)C4=O (stereo partly drawn) [Compound 25]
[1]
  MIC: 0.03 µg/mL (≈ 0.0313 µM)
[2]
  MIC: ≤ 0.016 µg/mL
[3]
  MIC: 2 µg/mL (≈ 2.09 µM)

## CO[C@H]1/C=C/O[C@@]2(C)Oc3c(C)c(O)c4c(c3C2=O)C2=NC3(CCN(CC(C)C)CC3)NC2=C(NC(=O)/C(C)=C\C=C\[C@H](C)[C@H](O)[C@@H](C)[C@@H](O)[C@@H](C)[C@H](OC(=O)NC2CCN(CC3CCCCC3)CC2)[C@@H]1C)C4=O [Compound 29]
[1]
  MIC: 0.125 µg/mL (≈ 0.122 µM)
[2]
  MIC: ≤ 0.016 µg/mL
[3]
  MIC: 0.25 µg/mL (≈ 0.243 µM)

## CO[C@H]1/C=C/O[C@@]2(C)Oc3c(C)c(O)c4c(c3C2=O)C2=NC3(CCN(CC(C)C)CC3)NC2=C(NC(=O)/C(C)=C\C=C\[C@H](C)[C@H](O)[C@@H](C)[C@@H](O)[C@@H](C)[C@H](OC(=O)N2CC3CC2CN3Cc2ccccc2)[C@@H]1C)C4=O [Compound 32]
[1]
  MIC: 0.25 µg/mL (≈ 0.245 µM)
[2]
  MIC: 0.03 µg/mL
[3]
  MIC: 0.5 µg/mL (≈ 0.491 µM)

## CO[C@H]1/C=C/O[C@@]2(C)Oc3c(C)c(O)c4c(c3C2=O)C2=NC3(CCN(CC(C)C)CC3)NC2=C(NC(=O)/C(C)=C\C=C\[C@H](C)[C@H](O)[C@@H](C)[C@@H](O)[C@@H](C)[C@H](OC(=O)N2CCC3(CCN(CC5CCCCC5)C3)C2)[C@@H]1C)C4=O (stereo partly drawn) [Compound 36]
[1]
  MIC: 0.25 µg/mL (≈ 0.237 µM)
[2]
  MIC: 0.06 µg/mL
[3]
  MIC: 0.125 µg/mL (≈ 0.119 µM)

## CO[C@H]1/C=C/O[C@@]2(C)Oc3c(C)c(O)c4c(c3C2=O)C2=NC3(CCN(CC(C)C)CC3)NC2=C(NC(=O)/C(C)=C\C=C\[C@H](C)[C@H](O)[C@@H](C)[C@@H](O)[C@@H](C)[C@H](OC(=O)N2CCN(Cc3nccn3C)CC2)[C@@H]1C)C4=O [Compound 37]
[1]
  MIC: 0.03 µg/mL (≈ 0.0297 µM)
[2]
  MIC: ≤ 0.016 µg/mL
[3]
  MIC: 2 µg/mL (≈ 1.98 µM)

## CO[C@H]1/C=C/O[C@@]2(C)Oc3c(C)c(O)c4c(c3C2=O)C2=NC3(CCN(CC(C)C)CC3)NC2=C(NC(=O)/C(C)=C\C=C\[C@H](C)[C@H](O)[C@@H](C)[C@@H](O)[C@@H](C)[C@H](OC(=O)N2CCN(Cc3c(C)noc3C)CC2)[C@@H]1C)C4=O [Compound 38]
[1]
  MIC: 0.125 µg/mL (≈ 0.122 µM)
[2]
  MIC: ≤ 0.016 µg/mL
[3]
  MIC: 1 µg/mL (≈ 0.974 µM)

## CO[C@H]1/C=C/O[C@@]2(C)Oc3c(C)c(O)c4c(c3C2=O)C2=NC3(CCN(CC(C)C)CC3)NC2=C(NC(=O)/C(C)=C\C=C\[C@H](C)[C@H](O)[C@@H](C)[C@@H](O)[C@@H](C)[C@H](OC(=O)N2CCCN(CC3CCCCC3)CC2)[C@@H]1C)C4=O [Compound 41]
[1]
  MIC: 1 µg/mL (≈ 0.973 µM)
[2]
  MIC: 0.06 µg/mL
[3]
  MIC: 0.125 µg/mL (≈ 0.122 µM)

## CO[C@H]1/C=C/O[C@@]2(C)Oc3c(C)c(O)c4c(c3C2=O)C2=NC3(CCN(CC(C)C)CC3)NC2=C(NC(=O)/C(C)=C\C=C\[C@H](C)[C@H](O)[C@@H](C)[C@@H](O)[C@@H](C)[C@H](OC(=O)N2CCN(CCO)CC2)[C@@H]1C)C4=O [Compound 43]
[1]
  MIC: 0.06 µg/mL (≈ 0.0624 µM)
[2]
  MIC: ≤ 0.016 µg/mL
[3]
  MIC: 8 µg/mL (≈ 8.32 µM)

## CO[C@H]1/C=C/O[C@@]2(C)Oc3c(C)c(O)c4c(c3C2=O)C2=NC3(CCN(CC(C)C)CC3)NC2=C(NC(=O)/C(C)=C\C=C\[C@H](C)[C@H](O)[C@@H](C)[C@@H](O)[C@@H](C)[C@H](OC(=O)N2CCN(CCOCCO)CC2)[C@@H]1C)C4=O [Compound 44]
[1]
  MIC: 0.03 µg/mL (≈ 0.0298 µM)
[2]
  MIC: ≤ 0.016 µg/mL
[3]
  MIC: 4 µg/mL (≈ 3.98 µM)
